pIC50: −log10 of the molar value. Several values for one entry are separate records, joined by “and”; a condition that tells them apart may be missing. Equal values may be shown once. Read-outs that look alike come from different tables or passages of the source.
How the values were obtained:
Assay in all cases: CDK inhibition assay (microfluidic LabChip, IC50 format)
CDK1/B = CDK1/B (Homo sapiens, UniProt P06493); format: biochemical
CDK4-CYCLIND1 = CDK4-CYCLIND1 (Homo sapiens, UniProt P11802); details: a second value in parentheses for some compounds
Chain of CDK4-CYCLIND1 (P11802 whole entry): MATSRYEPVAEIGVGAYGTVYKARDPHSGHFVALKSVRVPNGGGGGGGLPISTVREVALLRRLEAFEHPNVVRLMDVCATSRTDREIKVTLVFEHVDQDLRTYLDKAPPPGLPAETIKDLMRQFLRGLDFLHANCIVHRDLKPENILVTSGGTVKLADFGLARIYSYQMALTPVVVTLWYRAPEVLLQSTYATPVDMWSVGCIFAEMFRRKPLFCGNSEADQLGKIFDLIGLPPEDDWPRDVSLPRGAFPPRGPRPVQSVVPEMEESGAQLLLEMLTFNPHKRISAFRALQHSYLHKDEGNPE
Chain of CDK4-CYCLIND1 (P24385 whole entry partner): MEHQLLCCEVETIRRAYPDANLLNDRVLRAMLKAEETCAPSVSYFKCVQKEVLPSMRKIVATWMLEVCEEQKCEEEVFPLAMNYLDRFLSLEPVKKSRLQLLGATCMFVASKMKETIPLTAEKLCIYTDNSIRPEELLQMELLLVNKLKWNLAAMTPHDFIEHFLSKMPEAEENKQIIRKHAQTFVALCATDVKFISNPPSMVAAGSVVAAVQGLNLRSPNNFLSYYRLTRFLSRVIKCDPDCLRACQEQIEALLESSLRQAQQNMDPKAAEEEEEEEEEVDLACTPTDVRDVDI

CDK2-CYCLINA = biological target: T1, CDK2-CYCLINA (Homo sapiens, UniProt P24941); format: biochemical; details: read-out: CDK2 CyclinA IC50
T1 construct: purchased Millipore

CDK9-CYCLINT1 = biological target: T2, CDK9-CYCLINT1 (Homo sapiens, UniProt P50750); format: biochemical; details: read-out: CDK9 CyclinT1 IC50
T2 construct: purchased Carna
T2 sequence (P50750 whole entry): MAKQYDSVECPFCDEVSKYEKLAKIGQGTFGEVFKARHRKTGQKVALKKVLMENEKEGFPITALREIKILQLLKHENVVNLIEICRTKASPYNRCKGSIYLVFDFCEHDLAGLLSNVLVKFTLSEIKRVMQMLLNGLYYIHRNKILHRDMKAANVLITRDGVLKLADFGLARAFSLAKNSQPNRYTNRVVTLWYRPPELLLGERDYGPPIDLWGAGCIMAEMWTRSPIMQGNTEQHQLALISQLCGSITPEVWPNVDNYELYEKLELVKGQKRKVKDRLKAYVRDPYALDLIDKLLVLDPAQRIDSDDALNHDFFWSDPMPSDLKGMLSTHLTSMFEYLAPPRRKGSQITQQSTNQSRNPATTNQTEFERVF
T2 sequence (O60563 whole entry partner): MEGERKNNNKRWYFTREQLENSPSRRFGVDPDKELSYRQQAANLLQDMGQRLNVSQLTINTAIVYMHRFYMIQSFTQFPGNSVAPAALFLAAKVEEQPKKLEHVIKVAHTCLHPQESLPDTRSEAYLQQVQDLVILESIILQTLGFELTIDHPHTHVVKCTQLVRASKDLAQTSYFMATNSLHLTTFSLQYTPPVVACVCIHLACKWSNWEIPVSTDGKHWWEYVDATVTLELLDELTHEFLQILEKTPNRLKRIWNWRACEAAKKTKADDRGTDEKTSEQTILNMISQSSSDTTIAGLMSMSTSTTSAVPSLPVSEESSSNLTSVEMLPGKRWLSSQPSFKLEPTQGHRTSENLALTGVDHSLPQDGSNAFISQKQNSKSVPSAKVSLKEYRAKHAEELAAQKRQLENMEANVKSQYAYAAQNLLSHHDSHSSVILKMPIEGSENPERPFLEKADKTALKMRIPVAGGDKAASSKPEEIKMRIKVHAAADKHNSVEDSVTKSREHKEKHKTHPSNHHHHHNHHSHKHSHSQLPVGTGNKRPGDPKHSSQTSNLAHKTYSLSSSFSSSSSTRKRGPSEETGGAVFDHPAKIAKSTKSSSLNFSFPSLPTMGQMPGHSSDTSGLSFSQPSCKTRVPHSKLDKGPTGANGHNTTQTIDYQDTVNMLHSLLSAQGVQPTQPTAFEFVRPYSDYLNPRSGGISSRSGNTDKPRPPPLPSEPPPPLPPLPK

CDK7 CyclinH = CDK7 CyclinH (Homo sapiens, UniProt P50613); format: biochemical
Chain of CDK7 CyclinH (P50613 whole entry): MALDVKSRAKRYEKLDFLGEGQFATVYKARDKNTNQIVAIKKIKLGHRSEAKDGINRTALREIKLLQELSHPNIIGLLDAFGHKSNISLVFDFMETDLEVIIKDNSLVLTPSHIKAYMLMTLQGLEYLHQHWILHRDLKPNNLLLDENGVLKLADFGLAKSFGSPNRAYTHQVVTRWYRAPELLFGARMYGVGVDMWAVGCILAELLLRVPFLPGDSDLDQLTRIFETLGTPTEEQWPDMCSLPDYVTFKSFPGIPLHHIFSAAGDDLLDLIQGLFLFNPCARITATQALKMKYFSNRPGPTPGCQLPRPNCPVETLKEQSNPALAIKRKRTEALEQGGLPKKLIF
Chain of CDK7 CyclinH (P51946 whole entry partner): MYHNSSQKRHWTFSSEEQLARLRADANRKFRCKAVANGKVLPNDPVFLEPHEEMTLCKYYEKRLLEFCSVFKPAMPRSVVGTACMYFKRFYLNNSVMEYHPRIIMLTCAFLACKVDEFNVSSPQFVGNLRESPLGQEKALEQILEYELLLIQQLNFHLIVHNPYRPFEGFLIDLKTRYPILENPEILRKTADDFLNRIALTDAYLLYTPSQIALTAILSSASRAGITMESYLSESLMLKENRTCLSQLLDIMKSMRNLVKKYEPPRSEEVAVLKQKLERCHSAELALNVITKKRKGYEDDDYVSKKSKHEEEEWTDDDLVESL
Chain of CDK7 CyclinH (P51948 whole entry partner): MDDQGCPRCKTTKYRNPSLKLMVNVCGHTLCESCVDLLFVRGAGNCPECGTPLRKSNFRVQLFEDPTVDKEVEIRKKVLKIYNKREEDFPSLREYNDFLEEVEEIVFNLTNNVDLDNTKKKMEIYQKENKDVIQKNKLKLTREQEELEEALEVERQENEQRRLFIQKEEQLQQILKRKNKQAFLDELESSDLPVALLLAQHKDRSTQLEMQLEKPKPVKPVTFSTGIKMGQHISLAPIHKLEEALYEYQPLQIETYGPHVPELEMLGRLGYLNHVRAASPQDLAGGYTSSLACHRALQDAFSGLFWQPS

CDK6-CYCLIND3 = biological target: T3, CDK6-CYCLIND3 (Homo sapiens, UniProt Q00534); format: biochemical; details: read-out: CDK6 CyclinD3 IC50
T3 construct: purchased Carna
T3 sequence (Q00534 whole entry): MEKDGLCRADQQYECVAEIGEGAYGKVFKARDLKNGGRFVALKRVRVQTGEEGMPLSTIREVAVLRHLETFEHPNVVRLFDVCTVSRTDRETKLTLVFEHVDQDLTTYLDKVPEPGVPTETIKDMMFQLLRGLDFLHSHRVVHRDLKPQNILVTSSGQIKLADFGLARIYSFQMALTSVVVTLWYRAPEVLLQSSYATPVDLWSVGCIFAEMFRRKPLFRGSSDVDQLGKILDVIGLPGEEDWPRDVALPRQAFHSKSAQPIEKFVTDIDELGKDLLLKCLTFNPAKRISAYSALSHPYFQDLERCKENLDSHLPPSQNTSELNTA
T3 sequence (P30281 whole entry partner): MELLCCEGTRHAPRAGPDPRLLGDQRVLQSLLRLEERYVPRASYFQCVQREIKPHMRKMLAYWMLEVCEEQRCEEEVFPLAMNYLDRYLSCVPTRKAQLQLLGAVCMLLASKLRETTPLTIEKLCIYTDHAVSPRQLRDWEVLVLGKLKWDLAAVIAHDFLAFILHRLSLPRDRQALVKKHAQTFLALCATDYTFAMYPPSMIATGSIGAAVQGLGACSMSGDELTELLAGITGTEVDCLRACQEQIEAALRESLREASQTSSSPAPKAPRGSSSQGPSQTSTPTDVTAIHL

[1] = CDK4 CyclinD1 IC50, Table 4b, lower part

Chain of CDK1/B (P06493 whole entry, species assumed): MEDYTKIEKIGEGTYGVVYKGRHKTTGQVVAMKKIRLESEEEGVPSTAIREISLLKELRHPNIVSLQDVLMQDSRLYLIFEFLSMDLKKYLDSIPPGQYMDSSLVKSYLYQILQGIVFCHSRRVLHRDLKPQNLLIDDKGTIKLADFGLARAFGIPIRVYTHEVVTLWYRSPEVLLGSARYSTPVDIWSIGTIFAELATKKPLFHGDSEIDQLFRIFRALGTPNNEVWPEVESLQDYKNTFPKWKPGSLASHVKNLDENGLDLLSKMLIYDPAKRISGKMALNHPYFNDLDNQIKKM
Chain of CDK1/B (P14635 whole entry partner, species assumed): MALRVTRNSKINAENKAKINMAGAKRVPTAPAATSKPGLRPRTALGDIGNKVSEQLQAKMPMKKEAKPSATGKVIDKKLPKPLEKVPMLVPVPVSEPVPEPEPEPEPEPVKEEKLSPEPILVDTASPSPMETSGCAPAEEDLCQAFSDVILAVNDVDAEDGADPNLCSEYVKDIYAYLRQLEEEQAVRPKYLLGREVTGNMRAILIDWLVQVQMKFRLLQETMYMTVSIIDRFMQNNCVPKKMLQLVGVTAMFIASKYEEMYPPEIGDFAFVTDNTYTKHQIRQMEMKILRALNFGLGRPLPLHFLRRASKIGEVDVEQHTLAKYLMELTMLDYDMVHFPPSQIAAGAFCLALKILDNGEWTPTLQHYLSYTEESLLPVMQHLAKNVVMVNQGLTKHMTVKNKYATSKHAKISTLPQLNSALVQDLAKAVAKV

Compound | pIC50 (CDK1/B; Table 4a) | pIC50 (CDK4-CYCLIND1; CDK4 CyclinD1 IC50, Table 4a) | pIC50 (CDK2-CYCLINA; Table 4a) | pIC50 (CDK9-CYCLINT1; Table 4a) | pIC50 (CDK7 CyclinH; Table 4a) | pIC50 (CDK1/B; Table 4b, lower part) | pIC50 (CDK2-CYCLINA; Table 4b, lower part) | pIC50 (CDK9-CYCLINT1; Table 4b, lower part) | pIC50 (CDK7 CyclinH; Table 4b, lower part) | pIC50 (CDK6-CYCLIND3; Table 4a) | pIC50 (CDK4-CYCLIND1; [1]) | pIC50 (CDK6-CYCLIND3; Table 4b, lower part)
CN1CCN(c2ccc(Nc3ncc4c(n3)N(C3CCCC3)C(=O)N([C@@H]3CCNC3)C4)cc2)CC1 [Example D74, (R)-1-cyclopentyl-7-((4-(4-methylpiperazin-1-yl)phenyl)amino)-3-(pyrrolidin-3-yl)-3,4-dihydropyrimido[4,5-d]pyrimidin-2(1H)-one] | < 5.00 | 5.56 | < 5.00 | < 5.00 | < 5.00 | – | – | – | – | – | – | –
CN1CCN(C2CCN(c3ccc(Nc4ncc5c(n4)N(C4CCCC4)C(=O)[C@]4(CCNC4=O)C5)cc3F)CC2)CC1 [Example D105, (S)-8-cyclopentyl-2-((3-fluoro-4-(4-(4-methylpiperazin-1-yl)piperidin-1-yl)phenyl)amino)-5,8-dihydro-7H-spiro[pyrido[2,3-d]pyrimidine-6,3′-pyrrolidine]-2′,7-dione] | 6.76 | > 8.49 | 7.26 | > 8.49 | 6.87 | – | – | – | – | – | – | –
CC(C)N1CCC(Nc2ncc3c(n2)N(C2CCCC2)C(=O)[C@]2(CCNC2=O)C3)CC1 [Example D125, (S)-8-cyclopentyl-2-((1-isopropylpiperidin-4-yl)amino)-5,8-dihydro-7H-spiro[pyrido[2,3-d]pyrimidine-6,3′-pyrrolidine]-2′,7-dione] | – | – | – | – | – | 5.94 | 5.94 | 7.69 | 6.25 | – | – | –
CC(C)c1ccc(Nc2ncc3c(n2)N(C2CCCC2)C(=O)[C@]2(CCNC2=O)C3)cc1 [Example D115, (S)-8-cyclopentyl-2-((4-isopropylphenyl)amino)-5,8-dihydro-7H-spiro[pyrido[2,3-d]pyrimidine-6,3′-pyrrolidine]-2′,7-dione] | – | – | – | – | – | 6.25 | 6.87 | 8.04 | < 5.00 | – | – | –
CC(C)n1cc(-c2ccc(Nc3ncc4c(n3)N(C3CCCC3)C(=O)[C@]3(CCNC3=O)C4)nc2)cn1 [Example D170, (S)-8-cyclopentyl-2-((5-(1-isopropyl-1H-pyrazol-4-yl)pyridin-2-yl)amino)-5,8-dihydro-7H-spiro[pyrido[2,3-d]pyrimidine-6,3′-pyrrolidine]-2′,7-dione] | – | 7.37 | 5.07 | 6.41 | < 4.00 | – | – | – | – | 7.27 | – | –
O=C1NCC[C@@]12Cc1cnc(Nc3ccc(N4CCNCC4)cn3)nc1N(C1CCCC1)C2=O [Example D152, (S)-8-cyclopentyl-2-((5-(piperazin-1-yl)pyridin-2-yl)amino)-5,8-dihydro-7H-spiro[pyrido[2,3-d]pyrimidine-6,3′-pyrrolidine]-2′,7-dione] | – | 8.93 | 5.77 | 6.92 | 4.72 | – | – | – | – | 8.79 | – | –
CC(C)N1CCN(c2ccc(Nc3ncc4c(n3)N(C35CC(C3)C5)C(=O)[C@]3(CCNC3=O)C4)cc2)CC1 [Example D187, (S)-8-(bicyclo[1.1.1]pentan-1-yl)-2-((4-(4-isopropylpiperazin-1-yl)phenyl)amino)-5,8-dihydro-7H-spiro[pyrido[2,3-d]pyrimidine-6,3′-pyrrolidine]-2′,7-dione] | – | – | – | – | – | – | 5.86 | 7.22 | 5.77 | – | 7.84 | 7.47
O=C1NCC[C@@]12Cc1cnc(Nc3ccc(OCCN4CCCC4)c(F)c3)nc1N(C1CCCC1)C2=O [Example D180, (S)-8-cyclopentyl-2-((3-fluoro-4-(2-(pyrrolidin-1-yl)ethoxy)phenyl)amino)-5,8-dihydro-7H-spiro[pyrido[2,3-d]pyrimidine-6,3′-pyrrolidine]-2′,7-dione] | – | 8.75 | 7.01 | 8.55 | 6.58 | – | – | – | – | 8.36 | – | –
COc1cc(N2CCNCC2)ccc1Nc1ncc2c(n1)N(C1CCCC1)C(=O)[C@]1(CCNC1=O)C2 [Example D165, (S)-8-cyclopentyl-2-((2-methoxy-4-(piperazin-1-yl)phenyl)amino)-5,8-dihydro-7H-spiro[pyrido[2,3-d]pyrimidine-6,3′-pyrrolidine]-2′,7-dione] | – | 7.53 | 6.11 | 6.63 | 5.14 | – | – | – | – | 7.23 | – | –
O=C1NCC[C@@]12Cc1cnc(Nc3ccc(N4CCC(N5CCOCC5)CC4)cc3)nc1N(C1CCCC1)C2=O [Example D182, (S)-8-cyclopentyl-2-((4-(4-morpholinopiperidin-1-yl)phenyl)amino)-5,8-dihydro-7H-spiro[pyrido[2,3-d]pyrimidine-6,3′-pyrrolidine]-2′,7-dione] | – | – | – | – | – | – | 6.94 | 7.79 | 6.23 | – | > 9.25 | > 9.25
CN(C)[C@@H]1CCN(c2ccc(Nc3ncc4c(n3)N(C3CCCC3)C(=O)[C@]3(CCNC3=O)C4)cn2)C1 [Example D175, (S)-8-cyclopentyl-2-((6-((R)-3-(dimethylamino)pyrrolidin-1-yl)pyridin-3-yl)amino)-5,8-dihydro-7H-spiro[pyrido[2,3-d]pyrimidine-6,3′-pyrrolidine]-2′,7-dione] | – | 8.81 and 9.08 | 7.24 | 8.44 | 6.33 | – | – | – | – | 8.59 | – | –
O=C1NCC[C@@]12Cc1cnc(Nc3ccc(N4CCNCC4)c(F)c3)nc1N(C13CC(C1)C3)C2=O [Example D184, (S)-8-(bicyclo[1.1.1]pentan-1-yl)-2-((3-fluoro-4-(piperazin-1-yl)phenyl)amino)-5,8-dihydro-7H-spiro[pyrido[2,3-d]pyrimidine-6,3′-pyrrolidine]-2′,7-dione] | – | – | – | – | – | – | 5.85 | 7.33 | 5.77 | – | 7.71 and 7.95 | 7.36
CN(C)[C@H]1CCN(c2ccc(Nc3ncc4c(n3)N(C3CCCC3)C(=O)[C@]3(CCNC3=O)C4)cc2)C1 [Example D174, (S)-8-cyclopentyl-2-((4-((S)-3-(dimethylamino)pyrrolidin-1-yl)phenyl)amino)-5,8-dihydro-7H-spiro[pyrido[2,3-d]pyrimidine-6,3′-pyrrolidine]-2′,7-dione] | – | 8.82 | 7.22 | 8.16 | 6.30 | – | – | – | – | 8.50 | – | –
COc1cc(N2CCN(C(C)C)CC2)ccc1Nc1ncc2c(n1)N(C1CCCC1)C(=O)[C@]1(CCNC1=O)C2 [Example D167, (S)-8-cyclopentyl-2-((4-(4-isopropylpiperazin-1-yl)-2-methoxyphenyl)amino)-5,8-dihydro-7H-spiro[pyrido[2,3-d]pyrimidine-6,3′-pyrrolidine]-2′,7-dione] | – | 7.16 | 5.54 | 6.38 | 4.92 | – | – | – | – | 6.95 | – | –
COc1cc(Nc2ncc3c(n2)N(C2CCCC2)C(=O)[C@]2(CCNC2=O)C3)ccc1N1CCN(C)CC1 [Example D160, (S)-8-cyclopentyl-2-((3-methoxy-4-(4-methylpiperazin-1-yl)phenyl)amino)-5,8-dihydro-7H-spiro[pyrido[2,3-d]pyrimidine-6,3′-pyrrolidine]-2′,7-dione] | – | 8.92 | 7.47 | 8.19 | 6.80 | – | – | – | – | 8.47 | – | –
Cc1cc(N2CCN(C)CC2)ccc1Nc1ncc2c(n1)N(C1CCCC1)C(=O)[C@]1(CCNC1=O)C2 [Example D163, (S)-8-cyclopentyl-2-((2-methyl-4-(4-methylpiperazin-1-yl)phenyl)amino)-5,8-dihydro-7H-spiro[pyrido[2,3-d]pyrimidine-6,3′-pyrrolidine]-2′,7-dione] | – | 8.04 | 6.47 | 7.19 | 5.58 | – | – | – | – | 7.97 | – | –
CC(C)c1ccc(Nc2ncc3c(n2)N(C2CCCC2)C(=O)[C@]2(CCNC2=O)C3)cc1F [Example D130, (S)-8-cyclopentyl-2-((3-fluoro-4-isopropylphenyl)amino)-5,8-dihydro-7H-spiro[pyrido[2,3-d]pyrimidine-6,3′-pyrrolidine]-2′,7-dione] | – | – | – | – | – | 5.97 | 6.62 | 7.91 | < 5.00 | – | – | –
Cc1cc(N2CCNCC2)ccc1Nc1ncc2c(n1)N(C1CCCC1)C(=O)[C@]1(CCNC1=O)C2 [Example D162, (S)-8-cyclopentyl-2-((2-methyl-4-(piperazin-1-yl)phenyl)amino)-5,8-dihydro-7H-spiro[pyrido[2,3-d]pyrimidine-6,3′-pyrrolidine]-2′,7-dione] | – | 8.27 | 6.42 | 7.21 | 5.49 | – | – | – | – | 7.98 | – | –
O=C1NCC[C@@]12Cc1cnc(Nc3ccc(N4CCNCC4)nc3)nc1N(C1CCCC1)C2=O [Example D149, (S)-8-cyclopentyl-2-((6-(piperazin-1-yl)pyridin-3-yl)amino)-5,8-dihydro-7H-spiro[pyrido[2,3-d]pyrimidine-6,3′-pyrrolidine]-2′,7-dione] | – | 8.91 | 7.45 | 8.12 | 6.47 | – | – | – | – | 8.55 | – | –
CN1CCN(c2ccc(Nc3ncc4c(n3)N(C35CC(C3)C5)C(=O)[C@]3(CCNC3=O)C4)cc2)CC1 [Example D186, (S)-8-(bicyclo[1.1.1]pentan-1-yl)-2-((4-(4-methylpiperazin-1-yl)phenyl)amino)-5,8-dihydro-7H-spiro[pyrido[2,3-d]pyrimidine-6,3′-pyrrolidine]-2′,7-dione] | – | – | – | – | – | – | 5.83 | 7.21 | 5.63 | – | 7.86 | 7.41
